Results taken from patent US11672802B2, “Induction of immune tolerance by using methotrexate” (Genzyme Corporation, priority 2011, dated 2023).

Legend:
[1] = test system: allogeneic heart transplant; test: Murine allogeneic heart transplant model, graft survival; assay type: in vivo, mice (C57BL/6 donor, Balb/c recipient); conditions: mouse, in vivo
Protocol: Polyclonal antibody mATG was administered as an intraperitoneal injection of 5 mg/kg every four weeks or as two 20 mg/kg doses given four days apart when in the transplant setting with the first dose given on the day of transplant (day 0).
C57BL/6 and BALB/c mice were obtained from Charles River (Kingston, N.Y. or Raleigh, N.C.) and used in these experiments between 8 and 13 weeks of age. The donor allogenic C57BL/6 mice were first anesthetized with an intraperitoneal injection of Ketamine (Fort Dodge Animal Health/Pfizer, Fort Dodge, Iowa) and Xylazine (Lloyd, Shenandoah, Iowa) and a median sternotomy was performed. […] The ascending aorta and pulmonary artery were then transected, the graft removed from the donor and the heart was stored in ice-cold saline until engraftment. A recipient mouse (Balb/c) was similarly anesthetized and prepped as described above for donor mice, except that the abdominal cavity was opened. […] After hemostasis was confirmed, the abdominal muscle was closed with a running 5-O Vicryl suture (Ethicon, Johnson & Johnson, Somerville, N.J.), and the skin closed with running 5-0 Ethilon suture (Ethicon). Standard post-op pain assessment and management was performed. Grafts were assessed by palpation 5-7 times per week for the first 30 day, and then 3-4 times per week until the end of the study.

anti-rhGAA IgG = test: Anti-rhGAA IgG ELISA titers in mice treated with rhGAA; assay type: in vivo
Protocol: Recombinant human alglucosidase alfa (rhGAA, marketed by Genzyme Corp. as Myozyme®) was used as a formulated drug product. Mice were treated weekly with 20 mg/kg of rhGAA by bolus tail vein injection unless stated differently. All mice were treated prophylactically with 5 to 30 mg/kg diphenhydramine (Baxter Healthcare Corporation, Deerfield, Ill.) intraperitoneally prior to rhGAA administration. Control animals were treated intravenously with either sterile 0.9% saline or rhGAA-formulation buffer. Methotrexate treatment
Mice were bled 4-6 days following rhGAA treatment and specific IgG was measured by ELISA. […] Endpoint titers were defined as the reciprocal of the sample dilution resulting in an absorbance value of 0.2 using Softmax software (Molecular Devices, Sunnyvale, Calif.).
C57Bl/6 mice were treated with one 20 mg/kg intravenous dose of rhGAA (Genzyme Corporation), 3 consecutive intraperitoneal doses of 5 mg/kg methotrexate (APP Pharmaceuticals, LLC), and either 1D11 or 13C4 at 5 mg/kg (Genzyme Corporation) for 3 doses every other day. Methotrexate, 1D11, and 13C4 treatment commenced with rhGAA injections. Spleens were collected 7 days after treatment initiation and were processed as described above for B cells, culture and flow analysis. Additionally, rhGAA titer data was obtained by treating animals as described above, with rhGAA dosed weekly over 12 weeks, methotrexate dosed for either 1 or 3 cycles, and 1D11 or 13C4 dosed 3 times a week every other day for 12 weeks. Serum samples were collected every 2 weeks for ELISA analysis.

[2] = test system: anti-alemtuzumab antibodies; conditions: rheumatoid arthritis patients, single dose escalation study; cited from earlier work
[3] = test system: circulating and splenic T cells and B cells; test: Flow cytometry of alemtuzumab-mediated lymphocyte depletion in blood and spleen; assay type: in vivo, huCD52 Tg mice
Protocol: For splenocyte and lymph node cell preparations single-cell suspensions were generated from harvested mouse spleens or inguinal and mesenteric lymph nodes by homogenization between frosted glass slides into PBS containing 2% FCS. For splenocyte preparations, red blood cells were lysed by 1-2 minute incubation with a red blood cell lysis solution (BD Biosciences, San Diego, Calif.). Blood was isolated by retro-orbital bleeding and cell preparations were performed by lysing red blood cells with red blood cell lysing solution (BD Biosciences) for 20-30 minutes. For all tissue preparations, live cells were enumerated using the ViCell automated counter (Beckman Coulter, Fullerton, Calif.). Following isolation, all cell preparations were washed with PBS/2% FCS prior to use in the assays described below.
For evaluation of cell populations within different tissues, single cell suspensions of the tissues were incubated with fluorochrome-conjugated antibodies that included anti-mouse CD4, CD8, CD25, CD44, CD62L (all antibodies from BD Biosciences or eBioscience, San Diego, Calif.). Intracellular Foxp3 expression analysis was performed according to the anti-Foxp3 manufacturer's protocol (eBiosciences, San Diego, Calif.). Following incubation with the antibodies, cells were washed and analyzed by flow cytometry (FACSCanto, BD Biosciences and FCS Express software, De Novo Software, Los Angeles, Calif.).

anti-alemtuzumab IgG = test: Anti-alemtuzumab IgG ELISA titers in huCD52 Tg mice
Text: Alemtuzumab-related studies employed human CD52 (huCD52) transgenic (Tg) mice between 6-12 weeks of age that were obtained from Charles River Laboratories/Genzyme Corp. Mice were housed and maintained in accordance with the Guide for Care and Use of Laboratory Animals and under American Association for Accreditation of Laboratory Animals Care I accreditation and all animal protocols used in these studies were approved by the Institutional Animals Care and Use Committee.
Monoclonal antibody alemtuzumab was administered intravenously as either a single injection of 0.5 mg/kg or in either a three or five day cycle of 0.5 mg/kg/day.
Methotrexate (Calbiochem catalog #454125) was administered at 0.5, 1.0, 2.0 or 5 mg/kg by intraperitoneal injection for 1-3 cycles, where each cycle equals either three, six or seven consecutive days of injection depending upon the experiment.
Mice were bled 4-6 days following alemtuzumab treatment and specific anti-alemtuzumab IgG was measured by ELISA. Briefly, 96-well plates (Corning Inc., Corning, N.Y., USA) were coated overnight with 3 μg/ml of alemtuzumab in PBS (pH 7.2). Following blocking with 0.1% BSA in PBS, serial dilutions of serum were added in duplicate to alemtuzumab-coated plates and incubated at 37° C. for 1 h. The plates were washed, and horseradish peroxidase-conjugated goat anti-mouse IgG secondary antibody (Southern Biotechnology Associates, Birmingham, Ala., USA) was added and allowed to incubate for 1 h at 37° C. Following a final wash, TMB substrate (BioFx, Owings Mills, Md., USA) was added and allowed to develop for 15 min at room temperature. The reaction was stopped by the addition of 1 N HCl and absorbance values were read at 450/650 nm on an ELISA plate reader (Molecular Devices, Sunnyvale, Calif., USA). End-point titers were defined as the antilog of the logarithmically transformed sample dilution interpolated at an absorbance value of 0.2 using Excel software (Microsoft, Redmond, Wash., USA).

[4] = alemtuzumab 0.5 mg/kg iv five consecutive days
[5] = peripheral blood, four weeks after five consecutive days of 0.5 mg/kg iv

## COc1c(C)c2c(c(O)c1C/C=C(\C)CCC(=O)OCCN1CCOCC1)C(=O)OC2 [mycophenolate mofetil]
[1]
  graft survival when co-administered with mATG: failed to significantly prolong graft survival

## rhGAA: recombinant human acid alpha-glucosidase, marketed by Genzyme as Myozyme
anti-rhGAA IgG; T cell deficient Nu/Nu mice
  ADA to rhGAA: little to no ADA
anti-rhGAA IgG; week 6, rhGAA alone, rhGAA + methotrexate, or with 5 mg/kg 1D11 or 13C4
  animals exhibiting high anti-rhGAA titers: two

## alemtuzumab: lymphocyte-depleting humanized anti-CD52 monoclonal antibody
[2]
  patients in whom anti-alemtuzumab antibodies developed: 63%
[3]; 24 hours after a single dose of alemtuzumab
  percent depletion of circulating B cells: 92%
[3]; [4]
  splenic follicular, B1 and regulatory B cells: depleted at one and/or two weeks
  splenic marginal zone, transitional 1 and transitional 2 B cells: not depleted at any of the time-points
  splenic transitional 3 B cells: only depleted after one week of treatment
[3]; alemtuzumab alone, or with methotrexate 5 mg/kg daily for first three days
  depletion of circulating T cells by fifth monthly dose of alemtuzumab: no longer deplete T cells
[3]; [5]
  recovery of CD19+ B cell numbers: returned to control levels
  recovery of total CD3+ T cells, CD4+ T helper cells and CD8+ T cytotoxic cells: did not recover to pre-treatment levels
[3]; single dose of alemtuzumab
  earliest depletion observed in peripheral blood, post-dosing: three hours
[3]; three days after a single dose of alemtuzumab
  percent depletion of circulating B cells: 36%
[3]; three days after a single dose of alemtuzumab, no methotrexate
  splenic cell subsets: significantly depleted
anti-alemtuzumab IgG; alemtuzumab 0.5 mg/kg iv
  ADA responses elicited: significant ADA responses
anti-alemtuzumab IgG; alemtuzumab 0.5 mg/kg monthly
  ADA response following the fifth dose: no longer generated anti-alemtuzumab antibodies
anti-alemtuzumab IgG; huCD52 Tg CD1 mice
  ADA titers against alemtuzumab: > 100,000

## O=P1(N(CCCl)CCCl)NCCCO1 (stereo not drawn) [cyclophosphamide]
[1]
  graft survival when co-administered with mATG: failed to significantly prolong graft survival
